Where no end group is shown, it is not given here.
Legend:
[1] = biological target: T1, complement component C5 (Homo sapiens, UniProt P01031); assay: Phage clone binding to C5 and free-peptide competition assay; details: for competition among phage clones and free peptides for binding to C5: free peptide at 50, 10 and 1 μM; for specific binding to complement component C5: phage panning / phage clone binding
T1 construct: purchased Advanced Research Technologies
Protocol: Peptides were identified by panning an M13 phage library (New England Biolabs), a random 12mer peptide library with a diversity of 10^11 different peptide structures, against complement component C5. The phage library was panned against C5 using three different methods for immobilizing C5. The binding reactions all contained 2×10^11 phage particles in PBS containing 0.5% BSA and 0.3% Tween 20. The binding reactions were carried out at 25° C. for two hours and then unbound phage were removed by washing 5 times with PBS containing 0.5% BSA and 0.3% Tween20. The phage were eluted by acid (0.2 M Glycine pH 2.2, 1 mg/mL BSA) and immediately neutralized with 1 M Tris pH 9.1. Following elution, recovered phage were amplified in ER2738 E. coli (NEB) and subjected to two more rounds of panning as described above. The methods for immobilizing C5 include directly coating C5 (Advanced Research Technologies) to the surface (1 μg/mL), capturing biotinylated C5 (1 μg/mL) on a neutravidin (Pierce) coated surface, and capturing biotinylated C5a (1 μg/mL) on a neutravidin (Pierce) coated surface. C5 and C5a (Quidel) were biotinylated by incubating with 10 fold molar excess of Sulfo-NHS-LC-LC-Biotin for 2 hours at room temperature at pH 7.4 and then removing excess biotin by gel filtration. A negative selection was performed in the final round against neutravidin for the two latter screening methods. DNA from twenty randomly selected clones from each of the three final libraries was isolated and sequenced.
The binding sites of the peptides were further probed via C5-binding competition assays. Increasing concentrations of each phage clone were incubated for 2 hours with 200 ng of biotinylated C5 in PBS containing 0.5% BSA. The phage bound C5 complex was captured on a neutravidin coated microplate for 20 minutes at room temperature and then washed with PBS containing 0.5% BSA. A peroxidase labeled anti-M13 antibody (Pharmacia) was used to detect the amount of phage bound to C5 with OPD substrate. Competition assays with free peptide were carried out in a similar manner except that one concentration of each phage clone was used which was determined as the concentration giving approximately 50% binding in the previous titration. Free peptide was added to the phage clones at concentrations of 50, 10 and 1 μM and incubated with the biotinylated C5 and the assay was carried out as above.

[2] = system: classical pathway; antibody sensitized sheep erythrocyte cells; assay: Classical pathway hemolytic assay (RBC hemolysis assay); format: cell-based, human; details: for inhibition of hemolysis: 100 uM peptide
Protocol: Inhibition of the classical pathway by the peptides was measured using a standard hemolysis assay, which monitors the lysis of sheep erythrocytes as a result of terminal complex formation (see e.g. FIG. 1, FIG. 10). Various concentrations of peptide were incubated with 50 μL pooled human plasma (diluted 1:30 with GVB^++), 5×10^7 antibody sensitized sheep erythrocyte cells, and GVB^++ buffer to a final volume of 200 μL. The reaction was incubated at 37° C. for one hour and centrifuged. The percentage of lysis was determined by measuring the optical density of the supernatant at 414 nm. 100% lysis was determined by the optical density at 414 nm of the supernatant from a control sample consisting of 5×10^7 antibody sensitized sheep erythrocyte cells in water. The percent inhibition was calculated as the (% lysisno peptide−% lysispeptide)/% lysisno peptide×100.

[3] = system: classical pathway; assay: Classical pathway component assay (immune complex, ELISA for C5a, SC5b-9, C3a); format: biochemical, human; details: classical pathway, immune complex, human plasma
Protocol: The inhibition of the classical pathway by the peptides was measured by incubating human plasma in the presence and absence of peptides with an immune complex generated on a surface and then monitoring for the production of complement components C5a, SC5b-9, and C3a. To generate the immune complex, a 10 mg/mL solution of BSA in PBS was incubated at 56° C. for 30 minutes and then used to coat the surface of a microplate by diluting to 50 μg/mL at pH 9.6 and incubating for one hour at 37° C. The plate was washed and then incubated with 18 μg/mL mouse anti-BSA IgG2a (Sigma) for one hour at 37° C. Pooled human plasma with and without various concentrations of peptide were incubated for 30 minutes at 37° C. with the generated immune complex and the reaction was stopped with the addition of EDTA. The plasma samples were then analyzed with commercially available ELISA's for the production of C5a (Pharmingen), SC5b-9 (Quidel), and C3a (Quidel).

[4] = system: alternative pathway; assay: Alternative activation pathway C.A. membrane assay (ELISA for C5a, SC5b-9, C3a); format: biochemical; details: cellulose acetate hemodialysis membrane, human plasma
Protocol: Inhibition of the alternative pathway by the peptides was determined by incubating pooled human plasma in the presence and absence of various concentrations of peptide with 20 mg of cellulose acetate hemodialysis membrane at 37° C. for one hour. The reaction was stopped with EDTA and then the samples were analyzed with commercially available ELISA's for the production of C5a (Pharmingen), SC5b-9 (Quidel), and C3a (Quidel).

[5] = system: complement system activated by zymosan; assay: Alternative activation pathway zymosan assay (ELISA for C5a, SC5b-9, C3a); format: biochemical; details: 2 mg/mL zymosan, human plasma
Protocol: The peptides were evaluated for involvement in activation of the complement system by the presence of zymosan. Zymosan, or yeast cell wall, has largely been described as an alternative pathway activator. In addition, there are sugars on the surface of the yeast cell wall which are capable of activating the lectin pathway. Therefore, zymosan can be considered as a general complement activator.
Varying concentrations of peptide were incubated with 2 mg/mL zymosan in pooled human plasma. The reactions were incubated at 37° C. for one hour and then stopped by the addition of EDTA. The samples were centrifuged, the plasma removed, and analyzed with commercially available ELISA's for the production of C5a (Pharmingen), SC5b-9 (Quidel), and C3a (Quidel).

[6] = system: Human mesangial cells; assay: Inhibition of complement mediated cell death, in vitro autoimmune glomerulonephritis model; format: cell-based; details: 250 μM of peptide, 48 hours
Protocol: The peptides were evaluated for their ability to inhibit complement mediated cell death in an in vitro autoimmune glomerulonephritis model. Human mesangial cells were cultured to approximately 75% confluency and then treated for one hour at 37° C. with phosphatidyl inositol-phospholipase C to remove GPI-anchored complement regulatory proteins. Following enzyme treatment, the cells were washed and equilibrated in GSBM growth medium supplemented with 2.5% fetal bovine serum for one hour at 37° C. The cells were then incubated in pooled human plasma supplemented with 100 μg/mL of heat aggregated human IVIG (generated by heating at 63° C. for 30 minutes) either in the presence of absence of various concentrations of peptides for 48 hours at 37° C. The source of complement was replenished every 12 hours during the incubation by adding 25% of the original volume of fresh plasma along with heat aggregated IVIG and peptides so that the same final concentrations were maintained. Following the 48 hour incubation, the cells were stained with the commercial Live/Dead Viability kit (Molecular Probes) and the relative fluorescence was measured to determine the extent of cell death. The percent of cell death was calculated versus a control sample in which heat-inactivated plasma, (heated to 56° C. for 30 minutes) as a means of inactivating complement components, was used.

T1 sequence (P01031 19-1676): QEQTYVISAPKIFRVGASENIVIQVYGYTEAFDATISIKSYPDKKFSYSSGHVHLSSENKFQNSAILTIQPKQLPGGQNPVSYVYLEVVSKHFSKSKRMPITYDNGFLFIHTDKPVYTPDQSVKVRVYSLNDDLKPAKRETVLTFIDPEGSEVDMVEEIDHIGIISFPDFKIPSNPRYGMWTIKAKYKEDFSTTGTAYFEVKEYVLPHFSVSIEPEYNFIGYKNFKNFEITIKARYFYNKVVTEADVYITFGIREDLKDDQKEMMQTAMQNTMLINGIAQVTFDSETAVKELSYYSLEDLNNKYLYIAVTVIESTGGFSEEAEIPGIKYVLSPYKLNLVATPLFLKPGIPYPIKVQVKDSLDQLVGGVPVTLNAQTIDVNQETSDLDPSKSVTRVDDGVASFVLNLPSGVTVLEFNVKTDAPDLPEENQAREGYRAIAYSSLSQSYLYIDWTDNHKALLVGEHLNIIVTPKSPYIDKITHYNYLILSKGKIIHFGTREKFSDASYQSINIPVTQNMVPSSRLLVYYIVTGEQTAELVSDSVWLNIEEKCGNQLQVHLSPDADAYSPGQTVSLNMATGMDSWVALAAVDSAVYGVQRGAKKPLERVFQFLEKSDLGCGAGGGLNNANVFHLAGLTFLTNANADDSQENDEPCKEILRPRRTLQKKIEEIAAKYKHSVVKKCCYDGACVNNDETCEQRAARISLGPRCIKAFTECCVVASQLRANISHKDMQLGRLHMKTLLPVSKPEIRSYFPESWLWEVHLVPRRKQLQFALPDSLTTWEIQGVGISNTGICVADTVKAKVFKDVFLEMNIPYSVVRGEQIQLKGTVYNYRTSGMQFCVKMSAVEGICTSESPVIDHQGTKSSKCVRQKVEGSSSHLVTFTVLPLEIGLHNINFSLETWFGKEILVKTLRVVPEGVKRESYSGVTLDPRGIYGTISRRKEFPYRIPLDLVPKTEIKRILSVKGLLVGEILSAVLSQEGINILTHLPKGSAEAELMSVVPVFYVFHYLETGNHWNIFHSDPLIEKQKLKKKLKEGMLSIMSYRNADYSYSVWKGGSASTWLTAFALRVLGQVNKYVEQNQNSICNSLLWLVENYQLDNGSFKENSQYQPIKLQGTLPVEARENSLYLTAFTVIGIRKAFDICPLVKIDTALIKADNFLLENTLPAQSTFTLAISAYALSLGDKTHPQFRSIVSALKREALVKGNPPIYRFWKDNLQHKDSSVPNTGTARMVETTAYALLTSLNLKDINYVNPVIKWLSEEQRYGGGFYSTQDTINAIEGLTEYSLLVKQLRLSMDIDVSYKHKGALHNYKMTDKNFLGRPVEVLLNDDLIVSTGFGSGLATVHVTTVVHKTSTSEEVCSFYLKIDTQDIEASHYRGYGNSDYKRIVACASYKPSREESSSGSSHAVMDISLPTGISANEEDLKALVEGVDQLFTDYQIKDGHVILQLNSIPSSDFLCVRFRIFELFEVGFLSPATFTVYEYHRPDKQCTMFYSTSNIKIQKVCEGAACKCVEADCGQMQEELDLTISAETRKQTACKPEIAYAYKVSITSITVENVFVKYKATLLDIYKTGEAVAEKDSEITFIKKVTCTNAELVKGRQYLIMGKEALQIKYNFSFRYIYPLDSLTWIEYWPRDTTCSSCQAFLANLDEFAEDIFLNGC

SFNDLLWRWEWP [Peptide 7]
competition among phage clones and free peptides for binding to C5 [1]: significant competition
specific binding to complement component C5 [1]: specifically bound complement component C5
inhibition of hemolysis [2]: significant inhibition of hemolysis
C3a production [3]: enhanced production
C5a production [3]: inhibited
SC5b-9 production [3]: inhibited
C3a production [4]: activated
C5a generation [4]: inhibited
SC5b-9 generation [4]: inhibited
C3a generation [5]: activated
C5a production [5]: inhibited
SC5b-9 production [5]: inhibited

TEEVRWEFPL [Peptide 117]
inhibitory activity in RBC hemolysis assay compared with parent peptide [2]: enhanced the levels of inhibitory activity
inhibition of complement mediated cell death [6]: up to 69%

TQDNRWEFPLRV [Peptide 13]
competition among phage clones and free peptides for binding to C5 [1]: significant competition
specific binding to complement component C5 [1]: specifically bound complement component C5
inhibitory activity in RBC hemolysis assay compared with parent peptide [2]: almost comparable activity
inhibition of hemolysis [2]: significant inhibition of hemolysis
C3a production [3]: neither of these peptides produced an effect
C5a production [3]: dose-dependent increase in the inhibition
SC5b-9 production [3]: dose-dependent increase in the inhibition
C3a production [4]: no effect
C5a generation [4]: dose-dependent inhibition
SC5b-9 generation [4]: dose-dependent inhibition
C3a generation [5]: no observeable effect
C5a production [5]: inhibited
SC5b-9 production [5]: inhibited

From patent US7348401B2, “Peptides that inhibit complement activation” (priority 2003, dated 2008)
